This is an account of results in patent publication US7307166B1, “Oxpurine nucleosides and their congeners, and acyl, derivatives thereof, for improvement of hematopoiesis” (Wellstat Therapeutics Corporation, priority 1987, dated 2007).

In test [1] the test system is rabbits treated with cyclophosphamide. The following applies: rabbit, in vivo; cited from earlier work.
The test system of test [2] is Balb/C female mice. Put plainly: Hematopoietic recovery after cyclophosphamide in mice (spleen weight, blood cell counts). Type of test: in vivo, mouse.
Test [3] has as its system Balb/C female mice. Described as above. Type of test: in vivo, mouse. The source holds these as a separate data set.
For test [4], the system named is bone marrow cells in culture. The following applies: sub-optimal amounts of colony stimulating factors; cited from earlier work.

For polyguanosine monophosphate, the leukocyte formation result in test [1] is recorded as “failed to stimulate”.
For the substance “polyoxyethylene sorbitan mono-oleate [Tween 80]”, the spleen weight entry with Balb/C female mice [2] (Ex 46: day 7 after CP, Tween 80 0.5% alone vs saline) was “modest increase”; with Balb/C female mice [3] (Ex 38: day 7 after CP, guanosine 5, acyl derivatives 2.5 μmoles/mouse/day in 0.2% Tween 80 i.p. 6 days, Tween 80 0.2%), “No significant difference”; with Balb/C female mice [3] (Ex 41: day 7 after CP, Tween 80 0.2% on days 4-6 or 1-6 (not days 1-4), vs saline) it was “elevated”. For the same substance, the neutrophil counts entry in the test on Balb/C female mice [2] (Ex 58: day 7 after CP, 1.0% Tween alone i.p. 6 days, vs saline) is “significantly different from controls”. Moreover, in the test with Balb/C female mice [3] (Ex 41: day 7 after CP, Tween 80 0.2% for any period), the lymphocyte counts result is on record as “not affected”. For the same substance, the mean spleen weight entry in the test with Balb/C female mice [3] (Ex 45: day 7 after CP, Tween 80 0.5%) is listed as “some increase”. For the same substance, in test [4], the “concentration of maximum activity” value is 10 ng/mL.
